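A five-concentration, 48-hour dose response in 96-well plates underlies each endpoint, interpolated linearly between surrounding concentrations. The concentration for 50% growth inhibition is given as GI50. TGI is the concentration that stops growth completely.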

This passage reports TGI and GI50 results from PubChem BioAssay (NCI).

Some test systems named below: COLO 205 colon; HOP-62 NSCLC; M14 melanoma; NCI-H23 lung; OVCAR-5 ovarian; PC-3 prostate; RPMI-8226 leukemia; SN12C renal; SNB-75 CNS; UO-31 renal.
Assay in all cases: inhibition of tumour cell growth, NCI panel, 48 h

Take `NNC(=S)NCCNC(=S)NN`: the TGI in the test with COLO 205 colon, in the test on HOP-62 NSCLC, with M14 melanoma, with NCI-H23 lung, with OVCAR-5 ovarian and in the test with PC-3 prostate was greater than 100 µM throughout. The TGI in the test on RPMI-8226 leukemia, in the test on SN12C renal, in the test with SNB-75 CNS and in the test on UO-31 renal was greater than 100 µM in each case.

`S=c1[nH]n2c(CCCCCCCCc3nnc4sc(=S)[nH]n34)nnc2s1`: the TGI with COLO 205 colon, with HOP-62 NSCLC, in the test on M14 melanoma, with NCI-H23 lung, in the test on OVCAR-5 ovarian and in the test on PC-3 prostate was greater than 100 µM each time. Besides, the TGI in the test with RPMI-8226 leukemia, with SN12C renal, with SNB-75 CNS and with UO-31 renal was greater than 100 µM throughout.

Turning to `O=C(N=c1ccc2nc(=O)[nH]n(O)c-2c1)C(F)(F)F`, the TGI with COLO 205 colon, in the test with HOP-62 NSCLC, in the test on M14 melanoma, in the test on NCI-H23 lung, in the test with OVCAR-5 ovarian and with PC-3 prostate was greater than 100 µM each time. In addition, the TGI with RPMI-8226 leukemia, with SN12C renal, in the test with SNB-75 CNS and in the test with UO-31 renal was greater than 100 µM throughout.

For the compound `O=C(N/N=C\c1ccc(N(CCCl)CCCl)cc1[N+](=O)[O-])c1cccnc1`, the GI50 in the test on COLO 205 colon, with HOP-62 NSCLC, in the test on M14 melanoma, with NCI-H23 lung, in the test on OVCAR-5 ovarian and in the test on PC-3 prostate was greater than 100 µM throughout. In addition, the GI50 in the test with RPMI-8226 leukemia, in the test with SN12C renal, with SNB-75 CNS and with UO-31 renal was greater than 100 µM each time. Besides, the TGI in the test with COLO 205 colon, in the test on HOP-62 NSCLC, in the test on M14 melanoma, in the test on NCI-H23 lung, with OVCAR-5 ovarian and in the test on PC-3 prostate was greater than 100 µM throughout. Also, the TGI in the test on RPMI-8226 leukemia, in the test with SN12C renal, with SNB-75 CNS and with UO-31 renal was greater than 100 µM throughout.

`CN(C)c1ccc(/C=C(\NC(=O)c2ccccc2)C2=NC(CCC(=O)O)C(=O)O2)cc1` (stereo not given): the TGI in the test on COLO 205 colon, in the test on HOP-62 NSCLC, in the test with M14 melanoma, with NCI-H23 lung, in the test on OVCAR-5 ovarian and in the test with PC-3 prostate was greater than 50 µM throughout. The TGI with RPMI-8226 leukemia, in the test on SN12C renal, in the test with SNB-75 CNS and with UO-31 renal was greater than 50 µM each time.

As for `COc1ccc2c3c([nH]c2c1)CCN(CCCC(=O)c1ccc(F)cc1)C3`, the TGI in the test on COLO 205 colon is 25.5 µM; in the test with HOP-62 NSCLC it was 27 µM; in the test on M14 melanoma, 28.9 µM; with NCI-H23 lung, 34.8 µM; in the test with OVCAR-5 ovarian, 27.1 µM; in the test on PC-3 prostate it was 25.6 µM. For the same compound, the TGI in the test with RPMI-8226 leukemia was 37.3 µM; in the test with SN12C renal, 29.7 µM; in the test with SNB-75 CNS it was 24.8 µM; in the test with UO-31 renal it was 27.5 µM.

In the case of `NC(CSSCC(N)=NCC12CC3CC(CC(C3)C1)C2)=NCC12CC3CC(CC(C3)C1)C2`, the TGI in the test with COLO 205 colon was 52.5 µM; in the test on HOP-62 NSCLC, greater than 100 µM; in the test on M14 melanoma, 50.2 µM; with NCI-H23 lung, 32.3 µM; with OVCAR-5 ovarian, 34.2 µM; with PC-3 prostate, 29.9 µM. For the same compound, the TGI with RPMI-8226 leukemia was 6.17 µM; in the test with SN12C renal it was 31.1 µM; in the test on SNB-75 CNS it was 45.2 µM; with UO-31 renal, 46.7 µM.

Turning to `C=CCN(CCNS(=O)(=O)c1ccc(C)cc1)S(=O)(=O)c1ccc(C)cc1`, the TGI in the test with COLO 205 colon is greater than 60.5 µM; in the test on HOP-62 NSCLC, greater than 100 µM; in the test on M14 melanoma it was greater than 100 µM; with NCI-H23 lung, greater than 95.5 µM; with OVCAR-5 ovarian, greater than 100 µM; in the test with PC-3 prostate, greater than 100 µM. Besides, the TGI in the test on RPMI-8226 leukemia is 73.5 µM; in the test on SN12C renal it was greater than 100 µM; in the test with SNB-75 CNS, greater than 100 µM; with UO-31 renal, greater than 100 µM.

In the case of `CCOC(=O)C(NC(=O)c1ccccc1)(N1CCN(c2cc3c(cc2F)c(=O)c(C(=O)O)cn3CC)CC1)C(F)(F)F` (stereo not given), the TGI is 31.1 µM in the test with COLO 205 colon; greater than 100 µM in the test with HOP-62 NSCLC; greater than 100 µM with M14 melanoma; greater than 100 µM with NCI-H23 lung; 45.3 µM in the test on OVCAR-5 ovarian; greater than 100 µM in the test with PC-3 prostate. In addition, the TGI was 69 µM in the test on RPMI-8226 leukemia, greater than 100 µM with SN12C renal, 90 µM in the test with SNB-75 CNS and 98.1 µM in the test with UO-31 renal.

Consider `Cc1ccc(C(=O)Nc2ccc(CP(=O)(O)O)cc2CP(=O)(O)O)cc1NC(=O)Nc1cc(C(=O)Nc2ccc(CP(=O)(O)O)cc2CP(=O)(O)O)ccc1C`, for which the TGI with COLO 205 colon, with HOP-62 NSCLC, in the test with M14 melanoma, in the test on NCI-H23 lung, with OVCAR-5 ovarian and in the test with PC-3 prostate was greater than 100 µM each time. Besides, the TGI with RPMI-8226 leukemia, in the test on SN12C renal, with SNB-75 CNS and in the test on UO-31 renal was greater than 100 µM each time.

Turning to `OCCN(/N=C\c1ccc2ccccc2c1)C1=NCCN1`, the TGI in the test with COLO 205 colon is 34.8 µM; in the test with HOP-62 NSCLC, greater than 100 µM; in the test with M14 melanoma, 35 µM; in the test on NCI-H23 lung, greater than 100 µM; in the test on OVCAR-5 ovarian, 72.2 µM; in the test with PC-3 prostate, greater than 100 µM. Besides, the TGI in the test on RPMI-8226 leukemia was 60.8 µM; with SN12C renal, greater than 100 µM; in the test with SNB-75 CNS it was greater than 100 µM; with UO-31 renal it was greater than 100 µM.

Regarding `CCOC(=O)Nc1ccc2c(c1)c(CCCCCCc1nc3ccccc3c3ccc(NC(=O)OCC)cc13)nc1ccccc12`, the TGI was greater than 100 µM in the test on COLO 205 colon; 64.2 µM in the test with HOP-62 NSCLC; 88.8 µM in the test on M14 melanoma; greater than 100 µM with NCI-H23 lung; greater than 100 µM with OVCAR-5 ovarian; greater than 100 µM with PC-3 prostate. For the same compound, the TGI with RPMI-8226 leukemia is greater than 100 µM; with SN12C renal, greater than 100 µM; with SNB-75 CNS, 45.3 µM; with UO-31 renal, greater than 100 µM.
